Test results from patent US8252807B2, “Methods of inhibiting the interaction between S100 and the receptor for advanced glycation end-products” (Board of Regents, The University of Texas System, priority 2007, dated 2012).

Tests used:
[1] = background statement; cited from earlier work
Panc-1 orthotopic tumors = experiment: Tumor growth and metastasis in scid mice, Panc-1 orthotopic; type: in vivo; details: for effect on liver or lung metastasis: Panc-1
Method: FIGS. 6A-6F show the effect of cromolyn on Panc-1 tumor growth and metastasis in vivo. Panc-1 cells stably expressing the firefly luciferase gene were injected orthotopically into 4-week-old male CB 17 scid mice. […] Mice were divided into four groups of five mice each with an equivalent mean tumor size between groups. […] One group was treated with water (control), one group received gemcitabine bi-weekly (125 mg per kg body weight bi-weekly by intraperitoneal injection), one group was administered cromolyn daily (5 mg per kg body weight daily by intraperitoneal injection), and the final group was given the combination of cromolyn and gemcitabine. All groups were treated for six weeks. Bioluminescent imaging was done weekly to assess tumor growth. […] Means and 95% confidence intervals from two independent experiments are shown (n=20). Two-tailed two-sample (unpaired) Student's t-tests were used to determine P values.
The anti-tumorigenic capability of the drug cromolyn was assessed in 4-week-old male CB 17 scid mice (n=20) carrying orthopic tumors of BxPC-3, MPanc96, and Panc-1 cells stably expressing a Lenti-luc reporter. All mouse experiments were reviewed and approved by the Institutional Animal Care and Use Committee of UT MD Anderson Cancer Center. All mice were maintained in a sterile environment. Cages, bedding, food, and water were all autoclaved. All mice were maintained on a daily 12-hour light/12-hour dark cycle, according to the institutional animal welfare guidelines.
BxPC-3, MPanc96, and Panc-1 cells carrying the Lenti-luc reporter gene were grown to 80% confluence, harvested by incubation with trypsin-EDTA, washed twice in PBS, and resuspended to a final concentration of 4.0×10^6 cells/mL. Each mouse (n=20 mice per cell line) was injected (into the pancreas) with cell suspensions (50 μL). Bioluminescent imaging to determine tumor volume was performed 1 week after injection because the tumors became established within this amount of time. This initial tumor volume was used to divide the mice into four groups of five mice each, such that the mean tumor size was equal between groups (FIGS. 4A, 5A, and 6A). To allow enough time to observe differences among treatment groups, the mice were followed for the next 5 weeks. One group of mice was then treated biweekly with a sub-maximal concentration of gemcitabine (125 mg per kg body weight by i.p. injection). A second group was treated with a daily injection of cromolyn (5 mg per kg body weight by i.p. injection). A third group was treated with both bi-weekly gemcitabine and daily cromolyn. The control group was treated daily with vehicle. Treatments were continued for 5 weeks, and the effects on the tumor burden and metastasis were analyzed by weekly bioluminescence imaging (FIGS. 4B, 5B, and 6B). At the end of the experiment the mice were anesthetized with 1.5% isofluorane/air mixture and killed by cervical dislocation.
Bioluminescence imaging was conducted using a cryogenically cooled IVIS 100 imaging system coupled to a data acquisition computer running Living Image software (Xenogen Corp., Alameda, Calif.). Before imaging, mice were placed in an acrylic chamber, anesthetized with 1.5% isofluorane/air mixture, and injected i.p. with 15 mg/mL of luciferin potassium salt in PBS at a dose of 150 mg per kg body weight. A digital grey scale image of each mouse was acquired, followed by acquisition and overlay of a pseudocolor image representing the spatial distribution of detected photons emerging from active luciferase within the mouse. Tumor volume was quantified as the sum of all detected photons within the region of the tumor per second. At the end of experiment, the mice were killed, and tumors were surgically removed and weighed. After the primary tumors were removed, cancer cell dissemination and metastasis was visualized using IVIS imaging, and metastatic colonies were counted. […]

SW480 cells = experiment: SW480 colon cancer cell invasion (matrigel transwell); type: cell-based; details: cromolyn 10 μM and 100 μM, 24 hours
Method: SW480 cells were plated on top of a layer of matrigel in a Boyden type chamber (transwell). Media containing 5% FBS was placed in the lower well and the cells were allowed to invade the matrigel layer for 24 hours in the presence of different concentrations of cromolyn.

BxPC-3 orthotopic tumors = experiment: Tumor growth and metastasis in scid mice, BxPC-3 orthotopic; type: in vivo; details: for lung metastasis, mean: control mean=5.5×10^8; for tumor burden (primary tumor volume by bioluminescence), mean: end of six weeks, cromolyn 5 mg per kg daily i.p., gemcitabine 125 mg per kg bi-weekly i.p., control mean=1.6×10^9
Method: BxPC-3 cells stably expressing the firefly luciferase gene were injected orthotopically into 4 week old male CB 17 scid mice. […] Mice were divided into four groups of five mice each with an equivalent mean tumor size between groups. […] One group was treated with water (control), one group received gemcitabine bi-weekly (125 mg kg body weight bi-weekly by intraperitoneal injection), one group was administered cromolyn daily (5 mg per kg body weight daily by intraperitoneal injection), and the final group was given the combination of daily cromolyn and bi-weekly gemcitabine. All groups were treated for six weeks. Bioluminescent imaging was done weekly to assess tumor growth. […] Means and 95% confidence intervals are shown. (n=20). Two-tailed two-sample (unpaired) Student's t-tests were used to determine P values. The anti-tumorigenic capability of the drug cromolyn was assessed in 4-week-old male CB 17 scid mice (n=20) carrying orthopic tumors of BxPC-3, MPanc96, and Panc-1 cells stably expressing a Lenti-luc reporter. All mouse experiments were reviewed and approved by the Institutional Animal Care and Use Committee of UT MD Anderson Cancer Center. All mice were maintained in a sterile environment. Cages, bedding, food, and water were all autoclaved. All mice were maintained on a daily 12-hour light/12-hour dark cycle, according to the institutional animal welfare guidelines. BxPC-3, MPanc96, and Panc-1 cells carrying the Lenti-luc reporter gene were grown to 80% confluence, harvested by incubation with trypsin-EDTA, washed twice in PBS, and resuspended to a final concentration of 4.0×10^6 cells/mL. Each mouse (n=20 mice per cell line) was injected (into the pancreas) with cell suspensions (50 μL). […] This initial tumor volume was used to divide the mice into four groups of five mice each, such that the mean tumor size was equal between groups (FIGS. 4A, 5A, and 6A). To allow enough time to observe differences among treatment groups, the mice were followed for the next 5 weeks. One group of mice was then treated biweekly with a sub-maximal concentration of gemcitabine (125 mg per kg body weight by i.p. injection). A second group was treated with a daily injection of cromolyn (5 mg per kg body weight by i.p. injection). A third group was treated with both bi-weekly gemcitabine and daily cromolyn. The control group was treated daily with vehicle. Treatments were continued for 5 weeks, and the effects on the tumor burden and metastasis were analyzed by weekly bioluminescence imaging (FIGS. 4B, 5B, and 6B). At the end of the experiment the mice were anesthetized with 1.5% isofluorane/air mixture and killed by cervical dislocation. […] Before imaging, mice were placed in an acrylic chamber, anesthetized with 1.5% isofluorane/air mixture, and injected i.p. with 15 mg/mL of luciferin potassium salt in PBS at a dose of 150 mg per kg body weight. A digital grey scale image of each mouse was acquired, followed by acquisition and overlay of a pseudocolor image representing the spatial distribution of detected photons emerging from active luciferase within the mouse. Tumor volume was quantified as the sum of all detected photons within the region of the tumor per second. At the end of experiment, the mice were killed, and tumors were surgically removed and weighed. After the primary tumors were removed, cancer cell dissemination and metastasis was visualized using IVIS imaging, and metastatic colonies were counted. Subsequently, tissues were fixed with formaldehyde, and histology was used to verify the accuracy of the bioluminescence data.

Row | SMILES | permeability to cells [1] | effect on liver or lung metastasis (Panc-1 orthotopic tumors) | effect on body weight (Panc-1 orthotopic tumors; Panc-1 model, up to 6 weeks) | tumor development in Panc-1 model (Panc-1 orthotopic tumors; cromolyn 5 mg per kg daily i.p., alone or with gemcitabine) | invasiveness of SW480 cells (SW480 cells) | lung metastasis, difference versus control (BxPC-3 orthotopic tumors; BxPC-3) | tumor burden, difference versus control (BxPC-3 orthotopic tumors; BxPC-3) | lung metastasis, mean (BxPC-3 orthotopic tumors; BxPC-3) | tumor burden (primary tumor volume by bioluminescence), mean (BxPC-3 orthotopic tumors; BxPC-3) | effect on body weight (BxPC-3 orthotopic tumors; BxPC-3 model, up to 6 weeks) | body weight, difference versus control (Panc-1 orthotopic tumors; Panc-1 model) | body weight at the end of the experiment, mean (Panc-1 orthotopic tumors; Panc-1 model, control mean=32.0 g) | effect on liver metastasis (BxPC-3 orthotopic tumors; BxPC-3, versus control) | effect on lung metastasis (BxPC-3 orthotopic tumors; BxPC-3, versus control) | body weight, difference versus control (BxPC-3 orthotopic tumors; BxPC-3 model) | body weight at the end of the experiment, mean (BxPC-3 orthotopic tumors; BxPC-3 model, control mean=31.1)
1 | O=C(O)c1cc(=O)c2c(OCC(O)COc3cccc4oc(C(=O)O)cc(=O)c34)cccc2o1 [cromolyn, disodium 1,3-bis[(2′-carboxylatochromon-5′-yl)oxy]-2-hydroxypropane] | impermeant to cells | neither cromolyn nor gemcitabine nor the combination reduced liver or lung metastasis | no effect on body weight | did not reduce tumor development or increase the effectiveness of gemcitabine | reduced the invasiveness | 3.9×10^8 photons/sec | 1.2×10^9 photons/sec | 1.6×10^8 photons/sec | 4.4×10^8 photons/sec | no effect on body weight |  |  |  |  |  | 
2 | Nc1ccn([C@@H]2O[C@H](CO)[C@@H](O)C2(F)F)c(=O)n1 [gemcitabine] |  | neither cromolyn nor gemcitabine nor the combination reduced liver or lung metastasis |  |  |  |  | 6.8×10^8 photons/sec | 3.9×10^8 photons/sec | 9.2×10^8 photons/sec |  | 4.8 g | 27.2 g | did not reduce metastasis | did not reduce metastasis | 3.9 g | 27.2 g
